Results from patent US4006240A, “Alcohol aversion process by enzyme inhibition” (priority 1975, dated 1977).

Tests used:
[1] = Dose without significant effect on water or total fluid intake; details: mouse, in vivo, ip; intraperitoneal injection at 12 hourly intervals, read from dose graph; read-out: Dose which has no significant effect on water or total fluid intake
Source text: The dose of the choline acetylase inhibitor when administered according to the present invention is selected to cause effective aversion to alcohol consumption. Effective aversion is intended to mean either the complete lack of compulsion to consume alcohol or at least a reduction of the compulsion to a point where the subject may consume alcohol in a strictly elective manner without being dependent thereon. The dose is also selected to be substantially free of undesirable side effects. By this is meant that the side effects are at most of a trivial nature and unimportant relative to the benefit derived from the treatment. One effect of excessive dosage with a choline acetylase inhibitor is a reduction in water consumption. […]
The dose of trans-4-[2-(1-naphthyl)vinyl]pyridine hydrochloride which has no significant effect on water or total fluid intake of these animals was determined to be 2 mg./kg. This was determined by intraperitoneal injection of trans-4-[2-(1-naphthyl)vinyl]pyridine hydrochloride at 12 hourly intervals during the test period at various dosage concentrations for various groups of mice. […]

[2] = tested on: C57B1/6J mice; assay: Ethanol aversion in C57B1/6J mice, free choice of water and 5% ethanol; assay type: in vivo, mouse; details: for 5% alcohol daily consumption: 2 mg./kg. i.p. at 12 hourly intervals; for 5% alcohol daily consumption / Water daily consumption: N = 8
Method: Adult male C57B1/6J mice weighing 20-25 g. were then placed into individual cages equipped with two small drinking tubes, one filled with water and the other with 5% ethanol in water. Food, water and alcohol solution were available ad libitum and the daily consumption of each was recorded at 10 a.m. The positions of the tubes were interchanged daily and different tubes were ocassionally substituted. After a period of 4 days to establish a reference base for alcohol and water consumption respectively, the animals were treated by intraperitoneal injection with 2 mg./kg. of body weight of trans-4-[2-(1-naphthyl)vinyl]-pyridine hydrochloride at 12 hourly intervals on the 5th and 6th days. Drug treatment was terminated on the 6th day and the animals were kept for an additional two days. The average values of water, 5% alcohol, and total fluid intake for each of these 8 days of the experiment are shown in the following table.

[3] = tested on: rats trained on a conditioned avoidance procedure; details: 2.0 mg./kg. intraperitoneally, 3 hr. session; cited from earlier work
[4] = day 5, 2 mg./kg. i.p. at 12 hourly intervals
[5] = day 6, 2 mg./kg. i.p. at 12 hourly intervals

Compound	NOAEL [1] [mg/kg]	Alcohol consumption as share of the daily fluid intake on the days of drug treatment ([2]; 5th and 6th days, 2 mg./kg. i.p., about 65% without drug)	Total daily fluid intake during the experimental period ([2]; 8-day experiment, drug on days 5 and 6)	5% alcohol daily consumption ([2]; day 5 (first treatment day)) [mL/kg]	5% alcohol as % of total daily fluid intake [2, 4] [%]	Total daily fluid consumption [2, 4] [mL/kg]	Water daily consumption [2, 4] [mL/kg]	5% alcohol daily consumption ([2]; day 6 (second treatment day)) [mL/kg]	5% alcohol as % of total daily fluid intake [2, 5] [%]	Total daily fluid consumption [2, 5] [mL/kg]	Water daily consumption [2, 5] [mL/kg]	Water and alcohol intakes on cessation of drug treatment ([2]; days 7 and 8, after drug treatment ended)	Increase in the response rate [3] [%]
C(=C\c1cccc2ccccc12)/c1ccncc1.Cl [N V P, trans-4-[2-(1-naphthyl)vinyl]pyridine hydrochloride]	2	about 42%	remained substantially constant	60 ± 2	34	177	117 ± 4	82 ± 3	43	193	111 ± 4	returned substantially to their pretreatment values	–
CC(N)Cc1ccccc1 (stereo not shown) [amphetamine]	–	–	–	–	–	–	–	–	–	–	–	–	~75
